Tests used:
[1] = test system: leukotriene D4 (LTD4)-induced contraction of the guinea pig ileum; test: Anti-SRS-A activity: inhibition of LTD4-induced contraction of guinea pig ileum; conditions: 50% inhibition of LTD4-induced contraction (60-70% of maximum contraction), drug added 1 minute before LTD4
Source text: The present inventors studied the antagonistic action of compound (I)-A against SRS-A using a synthetic LTD4 in the following manner.
The inhibitory effect of the drug on the contractile response (60-70% of maximum contraction) of the ileum of guinea pig (body weight 300-350 g, female and male) to leukotriene D4 (LTD4) was investigated. In Tyrode solution containing atropine (10^-7 M) and mepyramine (10^-6 M), 3×10^-10 or 10^-9 M of LTD4 was repeatedly permitted to act on the guinea pig ileum and after the amplitude of contraction had become constant, a solution of the test drug was added to a final concentration of 10^-9 to 10^-4 M. After 1 minute, the same concentration of LTD4 was further added and the anti-SRS-A activity of the drug was calculated from the change in contraction amplitude by means of the following equation. [formula]
To obtain the IC50 value, the mole concentration of the drug showing a 50% inhibition of the contractile response was determined from plots on a graph.
The drug was used as dissolved in dimethyl sulfoxide. The solvent was used in an amount less than 1% which would not exert any influence on the ileum.

Carrageenin edema = Carrageenin edema in rats; format: in vivo, rat; conditions: for Percent inhibition: carrageenin edema; for Mean volume of edematous swelling ±S.E.: in ml (unit assumed)
Experimental: The volume of the right hind paw of each rat was measured and the test compound suspended in 4% gum arabic solution was orally administered in an amount of 1 ml/100 g body weight. Immediately thereafter, a further amount of water was given to make the total dosing volume 5 ml. After 1 hour, 0.05 ml of a 1% suspension of carageenin in physiological saline was subcutaneously injected into the foot pad. Three hours after the carrageenin injection, the volume of the paw was measured again and the volume of the edema was calculated as a difference between this measured volume of the paw and the volume before the injection.
In the case of intravenous administration, a solution of the test compound in an aqueous solution of NaHCO3 was intravenously administered in an amount of 2.0 ml/100 g body weight and 5 ml of water per animal was orally administered. Then, carrageenin was injected subcutaneously to produce edema.

Acute toxicity in mice = format: in vivo, mouse (Jcl:ICR strain); conditions: 500 mg/kg oral
Experimental: Five 5-week-old male mice of Jcl:ICR strain, weighing 26.0 to 30.5 g, were used. Compound (I)-A-1 was suspended in a 5% solution of gum arabic and administered orally by gastric gavage at the level of 0.2 ml per 10 grams body weight.
Five 5-week-old male mice of Jcl:ICR strain, weighing 26.0 to 30.5 g, were used. Compound (I)-B-1 or (I)-B-2 was suspended in a 5% solution of gum arabic and administered orally by gastric gavage at the level of 0.2 ml per 10 grams body weight.

[2] = test system: bronchoconstriction due to leukotriene D4 (LTD4); test: Inhibition of bronchoconstriction due to intravenous LTD4 in guinea pigs (Konzett-Rossler); format: in vivo, guinea pig (Hartley strain); conditions: for Percent increase of overflow: 2 minutes before LTD4 10 μg/kg i.v., Mean±S.E.; for Percent inhibition: 2 minutes before LTD4 (Table 2)
Experimental: Guinea pigs of Hartley strain, both male and female, with body weights about 400 g were assigned to groups of 6 individuals, and the bronchoconstriction due to LTD4 were measured according to the method of Konzett-Rossler, [Konzett, H. and Rossler, R.: Naunyn-Schmiedebergs Archiv Fur Experimentelle Pathologie und Pharmakologie 195, 71-74 (1940)]. Each guinea pig was fixed in supine position under urethane anesthesia (1.5 g/kg, intraperitoneal) and the trachea was incised and connected to an artificial respiration apparatus, Rodent Respirator Model 680 [Harvard Apparatus Company, U.S.A.] via a cannula. The branch tube of this tracheal cannula was connected to Bronchospasm Transducer Model 7020 [Ugobasil Biological Research Apparatus, Italy]. Under the conditions of 5 to 7 ml of air per stroke, 70 strokes per minute and a lung loading pressure of 10 cmH2 O, the volume of overflowing air was recorded on Rectigraph-8S (Sanei Sokki Ltd., Japan) via a transducer. After administration of gallamine triethiodide (1 mg/kg, i.v.), 10 μ g/kg of histamine.2HCl was intravenously administered to investigate the response of the animal. Then, a solution of LTD4 in physiological saline (10 μg/kg) was intravenously administered and the bronchoconstriction elicited thereby was recorded for 15 minutes. Two minutes before LTD4 loading, compound (I)-A-1 was intravenously administered in a volume of 0.1 ml per 100 g body weight. Compound (I)-A-1 and LTD4 were administered through a cannula inserted into the jugular vein.
The compound (I)-A-1 was used as dissolved in physiological saline containing sodium hydrogen carbonate, and LTD4 was taken from a stock stored in methanol (1 mg/1 ml methanol) at -70° C.
The bronchoconstriction induced by intravenous administration of 10 μg/kg of LTD4 as given 2 minutes after the administration of physiological saline was maximal at the time of 30 seconds after the administration of LTD4 and, since then, was rapidly attenuated to about 50% at the time of 2 minutes but lasted till 15 minutes. Assuming that the response at complete obstruction is 100%, the values at 30 seconds and 15 minutes were 47.4±6.9% (n=6, Mean±S.E.) and 19.4±2.8% (Mean±S.E.), respectively (S.E.: standard error).
Then the present inventors studied the antagonistic action of the compound (I)-B against SRS-A using a synthetic LTD4 in the manner described on the compound (I)-A.
In each case, the bronchoconstriction following intravenous administration of 10 μg/kg of LTD4 at 2 or 30 minutes after the administration of physiological saline reached a maximum 30 seconds after the administration of LTD4, and then decreased to about 50% at 2 minutes after the administration of LTD4. The response continued for 15 minutes after the administration of LTD4. Repeated experiments using 6 animals per group gave mean degrees of maximum bronchoconstriction (30-second values) of 52.2-67.1% and 54.7-70.1%, respectively, as compared with the state of complete obstruction (100%). In experiment 1, the test compounds (I)-B-1, (I)-B-2 and Control compound-1 were each intravenously administered at two minutes before the administration of LTD4 and inhibitory effect on the bronchoconstriction was examined. The minimum effective doses (causing statistically significant differences as compared with the control group; significance level <5%) were 0.313, 0.313 and 5 mg/kg, respectively. The corresponding inhibition percentages were 41, 52 and 56%, respectively. In experiment 2, the test compounds were intravenously administered 30 minutes before the administration of LTD4 and the effect on the above response was examined. The minimum effective doses were 5, 5, and 20 mg/kg, respectively.
The test compounds were intravenously administered 2 minutes before the
intravenous administration of 10 μg/kg of LTD4.
The test compounds were intravenously administered 30 minutes before the
Each value was calculated from the volume (in percentage) of air […]

SMILES: CCCc1c(OCC(O)COc2ccc(-c3nn[nH]n3)cc2Cl)ccc(C(C)=O)c1O (centres unmarked) [Compound (I)-A-1, 4-[3-[4-(tetrazol-5-yl)-2-chlorophenoxy]-2-hydroxypropoxy]-2-hydroxy-3-propylacetophenone]
- IC50 [1]: 4.1 nM
- Percent inhibition (Carrageenin edema; 1 mg/kg i.v.): 19.2%
- Mean volume of edematous swelling ±S.E. (Carrageenin edema; 1 mg/kg i.v.): 0.442 ± 0.044
- Percent inhibition (Carrageenin edema; 10 mg/kg i.v.): 25.0%
- Mean volume of edematous swelling ±S.E. (Carrageenin edema; 10 mg/kg i.v., *p<0.05): 0.410 ± 0.046
- Mean volume of edematous swelling ±S.E. (Carrageenin edema; 50 mg/kg p.o., 3 hours after carrageenin, *p<0.05): 0.487 ± 0.023
- Percent inhibition (Carrageenin edema; 50 mg/kg p.o.): 15.0%
- antiinflammatory activity (in words) (Carrageenin edema; rat, in vivo): has an antiinflammatory activity
- Autopsy findings (Acute toxicity in mice; after 1 week): did not reveal any abnormalities
- symptoms attributable to compound after oral administration (Acute toxicity in mice; male mice): no symptoms
- Percent increase of overflow ([2]; 0.08 mg/kg i.v., 8 animals): 29.1 ± 7.5%
- Percent inhibition ([2]; 0.08 mg/kg i.v.): 39%
- Percent increase of overflow ([2]; 0.313 mg/kg i.v., 6 animals): 28.1 ± 7.1%
- Percent inhibition ([2]; 0.313 mg/kg i.v.): 41%
- Percent increase of overflow ([2]; 1.25 mg/kg i.v., 6 animals, *p<0.05 vs physiological saline control): 23.4 ± 8.0%
- Percent inhibition ([2]; 1.25 mg/kg i.v.): 51%
- inhibition of LTD4 bronchoconstriction (in words) ([2]; 5 mg/kg i.v., 2 minutes before LTD4): substantially complete inhibition
- Percent increase of overflow ([2]; 5 mg/kg i.v., 6 animals, ***p<0.001 vs physiological saline control): 3.3 ± 2.1%
- Percent inhibition ([2]; 5 mg/kg i.v.): 93%
- inhibitory effect against LTD4 bronchoconstriction (in words) ([2]; intravenously administered 2 minutes before LTD4 dosing): remarkable inhibitory effect

Reference: patent publication US4567201A, “Diphenoxypropane derivatives and compositions of antiasthmatic and antiinflammatory agents thereof” (Takeda Chemical Industries, Ltd., priority 1981, dated 1986)
